# Results reported in patent US9745282B2, “Indoline compounds as aldosterone synthase inhibitors” (Merck Sharp & Dohme Corp., priority 2012, dated 2017).
# Columns and labels:
# Assay type in all cases: cell-based
# [1] = molecular target: T1, human CYP11B1 (Homo sapiens (Human), UniProt P15538); assay: V79-Human-CYP11B1 cell assay, modified protocol; details: V79 cells expressing human CYP11B1
# Description: (§1) V79 cell lines stably expressing the either the human CYP11B2 or the human CYP11B1 enzyme were generated using a standard transfection protocol. V79 cells were transfected with plasmids pTriEx3-Hygro-hCyp11B2 or pTriEx3-Hygro-hCyp11B1 using Lipofectamine2000 reagent. V79 cells that stably express the human CYP11B2 or human CYP11B1 enzyme were selected for and maintained in DMEM supplemented with 10% FBS and 400 μg/mL hygromycin for 2 weeks. Single cell clones were generated by infinite dilution in DMEM supplemented with 10% FBS and 400 μg/mL hygromycin until single colonies were obtained. […] For testing of inhibitors, cells were harvested at 80% confluency with 0.05% Trypsan-EDTA, washed once in PBS, and reconstituted in DMEM+0.1% BSA media at a cell concentration of 600,000 cells/mL for the CYP11B2 assay and 280,000 cells/mL for the CYP11B1 assay. 25 μL of cells were added to a 384 well tissue culture treated plate and mixed with 0.3 μL of inhibitor or DMSO (1% final DMSO concentration) for 1 hour at 37° C., 5% CO2. After pre-incubation with inhibitor, the reaction was initiated by adding 5 μL of substrate (final concentration of 125 nM 11-deoxycorticosterone for the CYP11B2 assay or 250 nM 11-deoxycortisol for the CYP11B1 assay). The reaction was carried out for 3 hours at 37° C., 5% CO2 and was stopped by harvesting the supernatants. The amount of product in the supernatant (aldosterone for CYP11B2 assay and cortisol for the CYP11B1 assay) was measured using HTRF-based assay kit (Aldosterone HTRF-CisBio#64ALDPEB, Cortisol HTRF-CisBio #63IDC002-CORT). IC50s for the inhibitor were determined by plotting the amount of product formed against the concentration of inhibitor using sigmoidal dose-response curve (variable slope) fit in GraphPad.
# (§2) For the CYP11B2 assay, cells were reconstituted in DMEM+0.1% BSA media at a cell concentration of 600,000 cells/mL and for the CYP11B1 assay cells were reconstituted in DMEM+0.1% BSA media at a cell concentration of 280,000 cells/mL. 25 μl of cells were added to a 384 well tissue culture treated plate and mixed with […] or DMSO (1% final DMSO concentration) for 1 hour at 37° C., 5% CO2.
# [2] = molecular target: T2, human CYP11B2 (Homo sapiens (Human), UniProt P19099); assay: V79-Human-CYP11B2 cell assay, modified protocol; details: V79 cells expressing human CYP11B2
# Description: as §1, §2
# [3] = molecular target: T1, human CYP11B1; assay: V79-Human-CYP11B1 cell assay; details: V79 cells expressing human CYP11B1; 250 nM 11-deoxycortisol; cortisol by HTRF
# Description: V79 cell lines stably expressing the either the human CYP11B2 or the human CYP11B1 enzyme were generated using a standard transfection protocol. V79 cells were transfected with plasmids pTriEx3-Hygro-hCyp11B2 or pTriEx3-Hygro-hCyp11B1 using Lipofectamine2000 reagent. V79 cells that stably express the human CYP11B2 or human CYP11B1 enzyme were selected for and maintained in DMEM supplemented with 10% FBS and 400 μg/mL hygromycin for 2 weeks. Single cell clones were generated by infinite dilution in DMEM supplemented with 10% FBS and 400 μg/mL hygromycin until single colonies were obtained. Clones V79-hCYP11B2-CLE9 and V79-hCYP11B1-CL8C7, were determined to produce the most aldosterone and cortisol, respectively, and were selected for inhibitor screening. For testing of inhibitors, cells were harvested at 80% confluency with 0.05% Trypsan-EDTA, washed once in PBS, and reconstituted in DMEM+0.1% BSA media at a cell concentration of 600,000 cells/mL for the CYP11B2 assay and 280,000 cells/mL for the CYP11B1 assay. 25 μL of cells were added to a 384 well tissue culture treated plate and mixed with 0.3 μL of inhibitor or DMSO (1% final DMSO concentration) for 1 hour at 37° C., 5% CO2. After pre-incubation with inhibitor, the reaction was initiated by adding 5 μL of substrate (final concentration of 125 nM 11-deoxycorticosterone for the CYP11B2 assay or 250 nM 11-deoxycortisol for the CYP11B1 assay). The reaction was carried out for 3 hours at 37° C., 5% CO2 and was stopped by harvesting the supernatants. The amount of product in the supernatant (aldosterone for CYP11B2 assay and cortisol for the CYP11B1 assay) was measured using HTRF-based assay kit (Aldosterone HTRF-CisBio#64ALDPEB, Cortisol HTRF-CisBio #63IDC002-CORT). IC50s for the inhibitor were determined by plotting the amount of product formed against the concentration of inhibitor using sigmoidal dose-response curve (variable slope) fit in GraphPad.
# [4] = molecular target: T2, human CYP11B2; assay: V79-Human-CYP11B2 cell assay; details: V79 cells expressing human CYP11B2; 125 nM 11-deoxycorticosterone; aldosterone by HTRF
# Description: as §1
# T1 sequence (P15538 25-503): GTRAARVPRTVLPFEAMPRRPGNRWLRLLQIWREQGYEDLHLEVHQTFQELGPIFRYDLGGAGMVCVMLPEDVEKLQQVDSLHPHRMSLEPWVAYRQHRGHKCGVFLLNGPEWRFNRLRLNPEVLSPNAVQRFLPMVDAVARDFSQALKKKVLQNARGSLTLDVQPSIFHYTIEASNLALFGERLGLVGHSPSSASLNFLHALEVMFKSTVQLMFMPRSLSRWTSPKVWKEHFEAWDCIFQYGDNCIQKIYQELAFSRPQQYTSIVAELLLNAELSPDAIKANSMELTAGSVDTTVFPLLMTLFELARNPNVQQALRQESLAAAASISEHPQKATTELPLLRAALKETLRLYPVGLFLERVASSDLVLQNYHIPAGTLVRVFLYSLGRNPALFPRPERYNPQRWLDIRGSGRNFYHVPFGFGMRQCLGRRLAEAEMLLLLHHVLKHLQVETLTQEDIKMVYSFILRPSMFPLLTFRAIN
# T2 sequence (P19099 25-503): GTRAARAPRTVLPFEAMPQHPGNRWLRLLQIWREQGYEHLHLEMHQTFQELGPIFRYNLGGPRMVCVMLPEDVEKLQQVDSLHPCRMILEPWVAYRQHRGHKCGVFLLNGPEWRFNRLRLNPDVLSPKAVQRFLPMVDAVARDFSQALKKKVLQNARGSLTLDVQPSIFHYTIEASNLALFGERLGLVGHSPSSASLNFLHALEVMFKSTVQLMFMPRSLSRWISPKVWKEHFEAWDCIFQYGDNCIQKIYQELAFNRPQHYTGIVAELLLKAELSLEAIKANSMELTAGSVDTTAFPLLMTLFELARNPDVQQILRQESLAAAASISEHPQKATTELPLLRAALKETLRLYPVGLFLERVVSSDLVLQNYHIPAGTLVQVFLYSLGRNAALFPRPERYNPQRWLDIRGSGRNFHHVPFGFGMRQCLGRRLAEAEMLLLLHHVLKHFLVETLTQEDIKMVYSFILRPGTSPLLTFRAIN
Structure (SMILES),IC50 [1] [nM],IC50 [2] [nM],IC50 [3] [nM],IC50 [4] [nM]
"CC(=O)N1CCc2cc(-c3cnccc3C)ccc21 [Example 58, 1-acetyl-5-(4-methylpyridin-3-yl)-2,3-dihydro-1H-indole]",366,2.2,,
"CC(=O)N1CCc2cc(-c3cncc([C@@](C)(O)C(F)(F)F)c3)cc(F)c21 [Example 14, (R)-1-(7-fluoro-5-(5-(1,1,1-trifluoro-2-hydroxypropan-2-yl)pyridin-3-yl)indolin-1-l)ethanone]",,,13,0.8
"CC(=S)N1CCc2cc(-c3cccnc3)ccc21 [Example 34, 1-(5-(pyridin-3-yl)indolin-1-yl)ethanethione]",3380,6,,
"CC(=O)n1ccc2cc(-c3cccnc3)ccc21 [Example 50, 1-Acetyl-5-pyridin-3-yl-1H-indole]",1380,23,,
"CC(=O)N1CCc2cc(-c3cncc(F)c3)cc(Cl)c21 [Example 2, 1-(7-chloro-5-(5-fluoropyridine-3-yl)indolin-1-yl)ethanone]",,,7900,12
"CCC(=O)N1CCc2cc(-c3cncc4ccccc34)ccc21 [Example 29, 4-(1-propanoyl-2,3-dihydro-1H-indol-5-yl)isoquinoline]",516,2.8,,
"CC(=O)N1CCc2cc(-c3cncc(F)c3)c(Cl)cc21 [Example 45, 1-(6-chloro-5-(5-fluoropyridine-3-yl)indolin-1-yl)ethanone]",,,760,810
"CC(=O)N1CCc2cc(-c3cncc(C#N)c3C)cc(F)c21 [Example 17, 5-(1-acetyl-7-fluoroindolin-5-yl)-4-methylnicotino nitrile]",,,540,12
"O=C(C1CC1)N1CCc2cc(-c3cncc4ccccc34)ccc21 [Example 31, 4-[1-(cyclopropyl-carbonyl)-2,3-dihydro-1H-indol-5-yl]isoquinoline]",6090,152,,
"CC(=O)N1CCc2cc(-c3cncc([C@](C)(O)C(F)(F)F)c3)cc(Cl)c21 [Example 4, (S)-1-(7-chloro-5-(5-(1,1,1,-trifluoro-2-hydroxypropan-2-yl)pydine-3-yl)indolin-1-yl)ethanone]",,,26,1.2
"CC(=O)N1CCc2cc(-c3cccnc3)cc(Cl)c21 [Example 43, 1-(7-chloro-5-(pyridin-3-yl)indolin-1-yl)ethanone]",,,570,7.4
"CC(=O)N1CCc2cc(-c3cncc(F)c3)ccc21 [Example 1, 1-(5-(5-fluoropyridin-3-yl)indolin-1-yl)ethanone]",,,> 10000,110
"CC(=O)N1CCc2cc(-c3cncc4ccccc34)cc(Cl)c21 [Example 11, 1-(7-chloro-5-(isoquinolin-4-yl)indolin-1-yl)ethanone]",,,60,0.7
"COc1cncc(-c2ccc3c(c2)CCN3C(C)=O)c1 [Example 54, 1-acetyl-5-(5-methoxypyridin-3-yl)-2,3-dihydro-1H-indole]",803,16,,
"CC(=O)N1CCc2cc(-c3cncc([C@](C)(O)C(F)(F)F)c3)cc(F)c21 [Example 13, (S)-1-(7-fluoro-5-(5-(1,1,1-trifluoro-2-hydroxypropan-2-yl)pyridin-3-yl)indolin-1-yl)ethanone]",,,23,2.1
"CCc1c(F)cncc1-c1cc(Cl)c2c(c1)CCN2C(C)=O [Example 9, 1-(7-chloro-5-(4-ethyl-5-fluoropyridin-3-yl)indolin-1-yl)ethanone]",,,400,2.3

Structure (SMILES),IC50 [1] [nM],IC50 [2] [nM],IC50 [3] [nM],IC50 [4] [nM]
"CC(=O)N1CCc2cc(-c3cncc(C#N)c3C)cc(Cl)c21 [Example 10, 5-(1-acetyl-7-chloroindolin-5-yl) 4-methylnicotinotrile]",,,1600,35
"CC(=O)N1CCc2cc(-c3cccnc3)c(F)cc21 [Example 47, 1-(6-fluoro-5-(pyridin-3-yl)indon-1-yl)ethanone]",,,380,180
"COc1cncc(-c2cc(Cl)c3c(c2)CCN3C(C)=O)c1 [Example 3, 1-(7-chloro-5-(5-methoxypyridin-3-yl)indolin-1-yl)ethanone]",,,130,4.1
"CCc1c(F)cncc1-c1cc2c(cc1Cl)N(C(C)=O)CC2 [Example 46, 1-(6-chloro-5-(4-ethyl-5-fluoropyridine-3-yl)indolin-1-yl)ethanone]",,,780,620
"CC(=O)N1CCc2cc(-c3cnccc3C(F)(F)F)cc(Cl)c21 [Example 7, 1-(7-chloro-5-(4-(trifluoromethyl)pyridine-3-yl)indolin-1-yl)ethanone]",,,610,5
"CC(=O)N1CCc2cc(-c3cncc(C(F)(F)F)c3)cc(Cl)c21 [Example 6, 1-(7-chloro-5-(5-(triuoromethyl)pyridine-3-yl)indolin-1-yl)ethanone]",,,400,7.5
"CC(=O)N1CCc2cc(-c3cccnc3)c(Cl)cc21 [Example 44, 1-(6-chloro-5-(pyridin-3-yl)indoline-1-yl)ethanone]",,,470,640
"CC(=O)N1CCc2cc(-c3cncc(F)c3C)cc(F)c21 [Example 19, 1-(7-fluoro-5-(5-fluoro-4-methylpyridine-3-yl)indolin-1-yl)-ethanone]",,,100,1
"CC(=O)N1CCc2cc(-c3cncc(C#N)c3)cc(F)c21 [Example 16, 5-(1-acetyl-7-fluoroindolin-5-yl)nicotinonitrile]",,,> 10000,97
"CCc1c(F)cncc1-c1cc(F)c2c(c1)CCN2C(C)=O [Example 20, 1-(5-(4-ethyl-5-fluoropyridine-3-yl)-7-fluoroindolin-1-yl)ethanone]",,,500,1.6
"CC(=O)N1CCc2cc(-c3cncc(F)c3)cc(F)c21 [Example 18, 1-(7-fluoro-5-(5-fluoropyridine-3-yl)indolin-1-yl)-ethanone]",,,1100,15
"CC(=O)N1CCc2cc(-c3cncc(F)c3)c(F)cc21 [Example 48, 1-(6-fluoro-5-(5-fluoropyridin-3-yl)indolin-1-yl)ethanone]",,,> 10000,
"CC(=O)N1CCc2cc(-c3cccnc3)cc(F)c21 [Example 12, 1-(7-fluoro-5-(pyridine-3-yl)indolin-1-yl) ethanone]",,,900,4.9
"CC(=O)N1CCc2cc(-c3cncc([C@@](C)(O)C(F)(F)F)c3)cc(Cl)c21 [Example 5, (R)-1-(7-chloro-5-(5-(1,1,1,-trifluoro-2hydroxypropan-2-yl)pyridine-3-yl)indolin-1-yl)ethanone]",,,53,2.4
"CCc1c(F)cncc1-c1cc2c(cc1F)N(C(C)=O)CC2 [Example 49, 1-(5-(4-ethyl-5-fluoropyridin-3-yl)-6-fluoroindolin-1-yl)ethanone]",,,4000,170
